Measured values from patent publication US11390629B2, “1,5-disubstituted 1,2,3-triazoles are inhibitors of Rac/Cdc42 GTPases” (UNIVERSITY OF PUERTO RICO, priority 2016, dated 2022).
Entries after “also recorded” stand apart in the source; their conditions may differ.

Tests used:
[1] = system: GFP-HER2-BM mammary fat pad tumors; assay: Mammary fat pad tumor growth, GFP-HER2-BM cells in nude mice; format: in vivo; details: for reduction in tumor growth: 65 days; for Optimal % Change in Tumor Size (% T/C): day 65, control = 100; for Time in Days for Doubling of Tumor size, 2^1: control 8; for Time in Days for Doubling of Tumor size, 2^2: control 14.5; for Time in Days for Doubling of Tumor size, 2^3: control 27.7; for Time in Days for Doubling of Tumor size, 2^4: control 33.3
Protocol: FIGS. 6A-1, 6A-2, 6B, 6C, 6D, 6E. In-vivo efficacy of MBQ-167 in HER2-type breast cancer.
To test the effect of MBQ-167 on mammary tumor progression, nude mice were used to establish mammary fatpad tumors from GFP-HER2-BM cells. One week following mammary tumor establishment, the mice were treated 3× a week with 0, 1, or 10 mg/kg BW MBQ-167 by i.p. for 65 days.
Mice were treated with vehicle (12.5% ethanol, 12.5% Cremophor (Sigma-Aldrich, St. Louis, Mo.), and 75% 1×PBS pH 7.4), or 1 or 10 mg/kg BW MBQ-167 by i.p. injection in a 100 μL volume 3× a wk. Treatments continued until sacrifice at day 65.

[2] = system: p38-MAPK, p42/44 MAPK, Akt; assay: Western blot of MAPK and Akt signaling, MDA-MB-231; format: cell-based, human; details: 250 nM, 24 h
Description: FIGS. 13A, 13B. MAPK and Akt signaling in MDA-MB-231 cells. […] Representative western blots of N=3 are shown.

GFP-HER2-BM cells = assay: Cell viability assay (CellTiter 96 / MTT), GFP-HER2-BM; format: cell-based; details: Homo sapiens, 120 h
Description: Effect of MBQ-167 on cell survival.

PAK = assay: Western blot of PAK activity, MCF-7 cells; format: cell-based, human; details: MCF-7, 250 nM, 24 h; listed as MBQ-167
PAK1 and PAK4 = assay: Western blot of PAK activity, NCI-N87 gastric cancer cells; format: cell-based, human; details: NCI-N87, 250 or 500 nM; listed as MBQ-167
Description: (§1) FIGS. 8A, 8B. The effect of MBQ-167 on survival and PAK activity in NCI-N87 gastric cancer cells.

[3] = system: GFP-MDA-MB-231 mammary fat pad tumors; assay: Mammary fat pad tumor growth, GFP-MDA-MB-231 cells in SCID mice; details: 50 days
[4] = system: MCF10A mammary epithelial cells; assay: Cell viability assay (CellTiter 96 / MTT), MCF10A; details: 120 h
Cdc42 [5] = biological target: T1, Cdc42 (Homo sapiens, UniProt P60953); assay: G-LISA Cdc42 activity, GFP-HER2-BM cells; format: cell-based; design: endogenous in cells; host or cells: MDA-MB-231; details: 250 nM, 24 h
[6] = Toxicity observation: mouse weight and phenotype; format: in vivo, mice; details: 65-day study, 1 and 10 mg/kg BW; listed as MBQ-167
Description: The mice from this study were also examined once a week for potential toxicity. […] At necropsy, livers were harvested, lysed and subjected to liver enzyme assays as a test for potential toxic effects.

Cdc42 [7] = biological target: T1, Cdc42; assay: Cdc42 activity (Table 1A); format: cell-based; details: class by % inhibition at stated concentration
GFP-MDA-MB-231 cells = assay: Annexin V-Cy3-18 staining; format: cell-based, human; details: 250 or 500 nM, 6 h
Protocol: FIG. 14. Annexin V staining in response to MBQ-167. GFP-MDA-MB-231 cells growing on coverslips were treated with vehicle or MBQ-167 at 250 or 500 nM for 6 h; Cells were fixed in formaldehyde and stained with Annexin V-Cy3-18; Representative fluorescence micrographs are shown; Arrows indicate red fluorescent Annexin V staining at the membranes of apoptotic cells.
Apoptotic cells were detected by fluorescence microscopy of Annexin V-Cy3-18 stained cells as per manufacturer's instructions (Sigma-Aldrich, St Louis, Mo., USA). Briefly, GFP-MDA-MB-231 cells grown on coverslips were treated with vehicle, or 250 or 500 nM MBQ-167 for 6 h and stained with Annexin V-Cy3-18 in binding buffer (10 mM HEPES/NaOH, pH 7.5, 0.14 M NaCl, 2.5 mM CaCl2) for 15 min at room temperature. Coverslips were washed in binding buffer and fixed with 3.7% paraformaldehyde prior to fluorescence microscopy. Images were digitally acquired from an Olympus inverted fluorescence microscope.

[8] = system: GFP-HER2-BM, MDA-MB-468, Hs578t, Mia-PaCa-2, SKOV3, AGS, NCI-N87, SH-SY5Y cells; assay: Bright field cell phenotype, other mesenchymal cancer cell lines; format: cell-based, human; details: 250 or 500 nM, 24 h
Protocol: FIG. 9. Human cancer cell phenotype following MBQ-167 treatment. Triple negative breast cancer (MDA-MB-468), aggressive pancreatic (Mia PaCa-2), ovarian (SKVO3), gastric carcinoma (AGS and NCI-N87) cell lines and a neuroblastoma (SH-SY5Y) cell line were treated with 0, 250 or 500 nM MBQ-167 for 24 h; Representative bright field images are shown for each cell line.
(§2) Human breast cancer cells were visualized by bright field microscopy following MBQ-167 treatment. At ≥100 nM, starting at six hours, MBQ-167 induced a loss of polarity in metastatic breast cancer cells. […] On the other hand, non-cancer mammary epithelial MCF10A and epithelial breast cancer MCF-7 cells were resistant to MBQ-167 and remained polarized and attached to each other and the substratum (FIG. 2A).

MDA-MB-231 cells = assay: Transwell cell migration assay, MDA-MB-231; details: 250 and 500 nM, attached population
NCI-N87 cells = assay: MTT viability assay, NCI-N87 gastric cancer cells; format: cell-based, human; details: 250 nM
Description: as §1

MCF10A and MCF-7 cells = assay: Bright field cell phenotype, epithelial cells; format: cell-based, human; details: up to 500 nM
Protocol: FIGS. 2A, 2B, 2C. Breast cancer cell phenotype following MBQ-167 treatment.
as §2

T1 sequence (P60953 whole entry): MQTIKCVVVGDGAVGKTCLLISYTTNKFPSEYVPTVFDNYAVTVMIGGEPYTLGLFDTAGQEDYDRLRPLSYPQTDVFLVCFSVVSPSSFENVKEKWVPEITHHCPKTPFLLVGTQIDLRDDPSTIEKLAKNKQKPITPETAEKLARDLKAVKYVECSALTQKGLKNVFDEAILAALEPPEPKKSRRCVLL

With `CCn1c2ccccc2c2cc(-n3nncc3-c3ccccc3)ccc21` [I-1, 9-ethyl-3-(5-phenyl-1H-1,2,3-triazol-1-yl)-9H-carbazole] the “reduction in tumor growth” value ([1]; 1.0 mg/kg BW i.p. 3x a week) was roughly 80%, the “Optimal % Change in Tumor Size (% T/C)” value ([1]; 1 mg/kg BW i.p. 3x a week) was 58% and the “Time in Days for Doubling of Tumor size, 2^1” value ([1]; 1 mg/kg BW) was 10 days. The “Time in Days for Doubling of Tumor size, 2^2” value ([1]; 1 mg/kg BW) was 30 days, the “Time in Days for Doubling of Tumor size, 2^3” value ([1]; 1 mg/kg BW) was 57 days and the “Time in Days for Doubling of Tumor size, 2^4” value ([1]; 1 mg/kg BW) was “never reached”. For the same molecule, the “reduction in tumor growth” value ([1]; 10 mg/kg BW i.p. 3x a week) was roughly 95%, the “Optimal % Change in Tumor Size (% T/C)” value ([1]; 10 mg/kg BW i.p. 3x a week) was 9% and the “reduction of mammary fat pad tumor size” value ([1]; 10 mg/kg BW, by 2 months) was 91%. For the same molecule, the “Time in Days for Doubling of Tumor size, 2^1” value ([1]; 10 mg/kg BW) was 11 days, the “Time in Days for Doubling of Tumor size, 2^2” value ([1]; 10 mg/kg BW) was 30 days and the “Time in Days for Doubling of Tumor size, 2^3” value ([1]; 10 mg/kg BW) was “never reached”. The “Time in Days for Doubling of Tumor size, 2^4” value ([1]; 10 mg/kg BW) was “never reached”, the “inhibition of mammary tumor growth and metastasis” value ([1]; immunocompromised mice) was roughly 90% and the “effect on p38-MAPK, p42/44 MAPK and Akt activities” value [2] was “did not affect”. For the same molecule, the GI50 (GFP-HER2-BM cells) was 150 nM, the “effect on PAK activity” value (PAK) was “did not affect; also recorded: does not inhibit” and the “effect on PAK activity (phospho-PAK)” value (PAK1 and PAK4) was “inhibits both PAK1 and PAK4 activities; also recorded: significantly decreases”. The “inhibition of tumor growth” value ([3]; 1.0 mg/kg BW i.p. 3x a week) was 90%, the “inhibition of tumor growth” value ([3]; 5.0 mg/kg BW i.p. 3x a week) was 95% and the “inhibition of tumor growth” value ([3]; 10 mg/kg BW i.p. 3x a week) was 100%. For the same molecule, the GI50 ([4]; Homo sapiens, MCF-10A) was 350 nM, the “effect on viability of MCF7 and MCF-10A cells” value ([4]; at the GI50 concentrations of the metastatic cells) was “does not affect the viability” and the “effect on Cdc42 activity” value (Cdc42 [5]) was “inhibits”. The “weight loss or phenotypic changes” value [6] was “did not show any significant weight loss or phenotypic changes; also recorded: does not exert toxic effects”, the Cdc42 activity (Cdc42 [7]) was “A (>50% inhibition at 250 nM)” and the “Annexin V staining” value (GFP-MDA-MB-231 cells) was “increased Annexin V staining”. The “cell rounding and detachment phenotype” value [8] was “induced this phenotype”, the “reduction of directed migration” value (MDA-MB-231 cells) was 60-70% and the “reduction of cell viability” value (NCI-N87 cells; 24 h, listed as MBQ-167) was 55%. The cytotoxicity at […] (NCI-N87 cells; Homo sapiens, NCI-N87, 24 h, read-out: reduction of cell viability) was 50%, the “cell rounding and detachment phenotype” value (MCF10A and MCF-7 cells) was “resistant” and the “Rac Activity (Active Rac/Total Rac)” value (Rac; 250 nM, 24 h, MCF-7 cells, vehicle = 1.0) was 1.075 ± 0.3. For the same molecule, the “effect on Rac activity” value (Rac; MCF-7, 250 nM, listed as MBQ-167) was “insensitive; also recorded: does not affect”.
